Values quoted from earlier work as cited in patent US5919783A, “Indoline and azaindoline derivatives as 5-HT1D alpha receptor agonists” (Merck Sharp & Dohme Ltd., priority 1994, dated 1999).

Columns and labels:
[1] = system: human 5-HT1Dα and 5-HT1Dβ receptor subtypes; conditions: cf. WO-A-91/17174, Table 1
[2] = therapeutic doses

discrimination between human 5-HT1Dα and 5-HT1Dβ receptor subtypes (in words) [1]: barely discriminates
SMILES: CNS(=O)(=O)Cc1ccc2[nH]cc(CCN(C)C)c2c1 [sumatriptan]
adverse events in humans [2]: adverse cardiovascular events
